What all share (format): in vivo
In experiment [1] the test system is Myzus persicae. Briefly: Myzus persicae oral test. The conditions noted are these: 120 h, 20 ppm, oral uptake, after 5 days, read-out: efficacy. In outline:
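Aphids of mixed ages imbibe, through parafilm, compound solution (acetone stock, water-diluted) combined with sugar-supplemented IPL41 medium to 200 μl. Efficacy read at day 5 as percent killed, 0% meaning no deaths.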

Another experiment relates to Meloidogyne incognita. Briefly: Meloidogyne incognita test. The conditions noted are these: 336 h, lettuce, after 14 days, read-out: nematicidal efficacy (formation of galls). In outline:
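Gall formation on lettuce roots scored after 14 days: 0% means gall count equals untreated control, 100% means none. Sand vessels held the compound (acetone concentrate diluted in water), southern root-knot nematode egg/larvae suspension and lettuce seeds.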

Another experiment has as its system Musca domestica. Briefly: Musca domestica test. To be noted: 48 h, adult houseflies, after 2 days, read-out: efficacy (kill in %). The protocol:
Musca domestica Test Solvent: dimethyl sulphoxide To produce a suitable preparation of active compound, 10 mg of active compound are mixed with 0.5 ml of dimethyl sulphoxide, and the concentrate is diluted with water to the desired concentration. Vessels containing a sponge treated with sugar solution and the active compound preparation of the desired concentration are populated with 10 adult houseflies (Musca domestica). After 2 days, the kill in % is determined. 100% means that all of the flies have been killed; 0% means that none of the flies have been killed.

Experiment [2] concerns Myzus persicae. Briefly: Myzus persicae spray test (Chinese cabbage leaf discs). To be noted: foliar, 120 h, 500 g/ha, after 5-6 days, read-out: efficacy. In outline: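 Formulated compound in acetone/dimethylformamide, diluted in water with 1000 ppm emulsifier, was sprayed onto Brassica pekinensis leaf discs carrying mixed-stage Myzus persicae. Percent mortality was read 5-6 days later (0% = no aphids killed, 100% = all killed).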

Experiment [3] deals with Myzus persicae. Briefly: Myzus persicae spray test (bell pepper plants). The conditions noted are these: 144 h, 100 ppm, after 6 days, read-out: efficacy (kill in %). The protocol: Myzus persicae—Spray Test Solvent: 14 parts by weight of dimethylformamide Emulsifier: alkylaryl polyglycol ether To produce a suitable preparation of active compound, 1 part by weight of active compound is dissolved using the specified parts by weight of solvent and made up with water containing an emulsifier concentration of 1000 ppm until the desired concentration is attained. To produce further test concentrations, the formulation is diluted with emulsifier-containing water. If the addition of ammonium salts or/and penetrants is required, these are each added in a concentration of 1000 ppm to the formulation solution. Bell pepper plants (Capsicum annuum) severely infested with the green peach aphid (Myzus persicae) are treated by spraying with the active compound preparation in the desired concentration. After 6 days, the kill in % is determined. 100% means that all of the aphids have been killed; 0% means that none of the aphids have been killed.

A further experiment concerns Phaedon cochleariae. Briefly: Phaedon cochleariae spray test. To be noted: foliar, 168 h, Chinese cabbage leaf discs, larvae, after 7 days, read-out: efficacy. Summed up: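 Mortality of beetle larvae scored at day 7, expressed as % (0% none killed, 100% all). Formulation: compound in solvent, made up and further diluted with emulsifier-containing water (1000 ppm emulsifier).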

A further experiment relates to Lucilia cuprina. Briefly: Lucilia cuprina test. To be noted: 48 h, L1 larvae, after 2 days, read-out: efficacy (kill in %). Summed up: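 About 20 L1 larvae were held on minced horsemeat treated with compound, which was formulated in DMSO and diluted with water. Percent kill was scored after 2 days.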

As for `Cc1ccccc1S(=O)(=O)NC(=O)c1cn(C)c(-c2ccccc2F)n1` [Example 32], the pest or weed control at 20 ppm came to 100% in the experiment with Myzus persicae [1] and 90% in the experiment with Meloidogyne incognita. Besides, the pest or weed control at 100 ppm in the experiment with Musca domestica worked out at 80%. For the same compound, the pest or weed control at 500 g/ha in the experiment with Myzus persicae [2] is 90%.

Regarding `Cn1cc(C(=O)NS(=O)(=O)c2cc(C(F)(F)F)ccc2Cl)nc1-c1ccccc1Cl` [Example 52], the values for the pest or weed control at 20 ppm with Myzus persicae [1] and in the experiment on Meloidogyne incognita were 100% and 90%, respectively. In addition, the pest or weed control at 100 ppm in the experiment on Musca domestica worked out at 80%. The pest or weed control at 500 g/ha in the experiment with Myzus persicae [2] amounted to 90%.

For the compound `Cn1cc(C(=O)NS(=O)(=O)Cc2ccccc2)nc1-c1ccccc1Cl` [Example 60], the pest or weed control at 20 ppm with Myzus persicae [1] and in the experiment with Meloidogyne incognita was 100% throughout. In the experiment on Myzus persicae [3], the pest or weed control at 100 ppm is 85%.

With `COc1ccc(Cl)c(S(=O)(=O)NC(=O)c2cn(C)c(-c3c(F)cccc3Cl)n2)c1` [Example 107], the pest or weed control at 20 ppm with Myzus persicae [1] was 100%. For the same compound, the pest or weed control at 500 g/ha in the experiment with Phaedon cochleariae and in the experiment with Myzus persicae [2] was 100% in each case. Further, the pest or weed control at 100 ppm in the experiment on Musca domestica and with Lucilia cuprina was 100% in each case.

On to `Cc1[nH]c(C(=O)NS(=O)(=O)c2ccccc2Br)nc1-c1c(F)cccc1F` [Example 146], for which, in the experiment on Myzus persicae [3], the pest or weed control at 100 ppm stood at 90%.

Regarding `COc1ccc(OC)c(S(=O)(=O)NC(=O)c2cn(C)c(-c3c(F)cccc3Cl)n2)c1` [Example 151], the pest or weed control at 100 ppm in the experiment with Musca domestica stood at 100%. The pest or weed control at 500 g/ha in the experiment on Myzus persicae [2] amounted to 100%.

Consider `Cn1cc(C(=O)NS(=O)(=O)c2ccccc2Br)nc1-c1c(F)cccc1Cl` [Example 152], for which the pest or weed control at 20 ppm with Myzus persicae [1] and with Meloidogyne incognita was 100% in each case. Besides, the results for the pest or weed control at 500 g/ha in the experiment with Phaedon cochleariae and with Myzus persicae [2] were 100% and 90%, respectively. Also, in the experiment on Musca domestica, the pest or weed control at 100 ppm stood at 80%.

Regarding `COc1ccc(Br)c(S(=O)(=O)NC(=O)c2cn(C)c(-c3c(F)cccc3Cl)n2)c1` [Example 153], the pest or weed control at 20 ppm in the experiment on Myzus persicae [1] came out at 100%; with Meloidogyne incognita it was 90%. The pest or weed control at 500 g/ha in the experiment on Phaedon cochleariae and in the experiment on Myzus persicae [2] was 100% throughout. In the experiment on Musca domestica, the pest or weed control at 100 ppm turned out to be 80%.

For the compound `COc1ccc(F)cc1S(=O)(=O)NC(=O)c1cn(C)c(-c2c(F)cccc2Cl)n1` [Example 155], the pest or weed control at 20 ppm in the experiment with Myzus persicae [1] turned out to be 100%. Besides, in the experiment on Musca domestica, the pest or weed control at 100 ppm was 80%. In addition, in the experiment with Myzus persicae [2], the pest or weed control at 500 g/ha was 90%.

As for `Cc1ccc(Cl)cc1S(=O)(=O)NC(=O)c1cn(C)c(-c2c(F)cccc2F)n1` [Example 172], the pest or weed control at 20 ppm with Myzus persicae [1] and in the experiment on Meloidogyne incognita was 100% each time. Besides, the results for the pest or weed control at 500 g/ha in the experiment on Phaedon cochleariae and in the experiment with Myzus persicae [2] were 100% and 90%, respectively. The pest or weed control at 100 ppm in the experiment with Musca domestica was found to be 90%.

On to `Cn1cc(C(=O)NS(=O)(=O)c2ccc(Cl)cc2Cl)nc1-c1c(F)cccc1F` [Example 174], for which the pest or weed control at 20 ppm with Myzus persicae [1] and with Meloidogyne incognita was 100% in each case. Besides, the results for the pest or weed control at 500 g/ha with Phaedon cochleariae and in the experiment on Myzus persicae [2] were 83% and 100%, respectively. Also, the pest or weed control at 100 ppm in the experiment on Musca domestica is 90%.

Regarding `CCc1ccccc1S(=O)(=O)NC(=O)c1cn(C)c(-c2c(F)cccc2F)n1` [Example 185], the pest or weed control at 20 ppm with Myzus persicae [1] was 100%; with Meloidogyne incognita, 90%. Besides, in the experiment on Musca domestica, the pest or weed control at 100 ppm was 80%. Moreover, the pest or weed control at 500 g/ha in the experiment with Myzus persicae [2] was 100%.

As for `Cc1cccc(C)c1S(=O)(=O)NC(=O)c1cn(C)c(-c2c(F)cccc2F)n1` [Example 186], the pest or weed control at 20 ppm in the experiment with Myzus persicae [1] worked out at 100%; with Meloidogyne incognita, 90%. For the same compound, the pest or weed control at 500 g/ha with Phaedon cochleariae and with Myzus persicae [2] was 100% in each case. Besides, the results for the pest or weed control at 100 ppm in the experiment on Musca domestica and in the experiment with Lucilia cuprina were 85% and 100%, respectively.

As for `Cn1cc(C(=O)NS(=O)(=O)c2ccc(Cl)cc2Cl)nc1-c1ccccc1Cl` [Example 231], in the experiment with Meloidogyne incognita, the pest or weed control at 20 ppm was 100%. The pest or weed control at 500 g/ha turned out to be 100% in the experiment with Phaedon cochleariae and 90% in the experiment with Myzus persicae [2]. The pest or weed control at 100 ppm in the experiment with Musca domestica and with Lucilia cuprina was 100% in each case.

As for `Cc1[nH]c(-c2ccc(Cl)c(Cl)c2)nc1C(=O)NS(=O)(=O)C(C)C` [Example 237], the pest or weed control at 20 ppm with Myzus persicae [1] amounted to 100%. Also, in the experiment on Myzus persicae [3], the pest or weed control at 100 ppm stood at 90%.

`CCc1cccc(C(F)(F)F)c1S(=O)(=O)NC(=O)c1cn(C)c(-c2c(F)cccc2F)n1` [Example 337]: the pest or weed control at 20 ppm in the experiment with Myzus persicae [1] amounted to 100%; with Meloidogyne incognita it was 90%. In addition, the pest or weed control at 500 g/ha with Phaedon cochleariae stood at 100%; with Myzus persicae [2], 90%. In the experiment with Musca domestica, the pest or weed control at 100 ppm worked out at 80%.

Consider `Cc1nc(C)c(S(=O)(=O)NC(=O)c2cn(C)c(-c3c(F)cccc3F)n2)s1` [Example 347], for which, in the experiment on Myzus persicae [1], the pest or weed control at 20 ppm amounted to 90%. For the same compound, the pest or weed control at 100 ppm with Myzus persicae [3] was found to be 90%.

For the compound `Cc1ccc(C)c(S(=O)(=O)NC(=O)c2cn(C)c(-c3c(F)cccc3F)n2)c1` [Example 394], the pest or weed control at 20 ppm was found to be 100% with Myzus persicae [1] and 90% with Meloidogyne incognita. Moreover, the pest or weed control at 500 g/ha in the experiment with Phaedon cochleariae and with Myzus persicae [2] was 100% in each case. For the same compound, the figures for the pest or weed control at 100 ppm in the experiment on Musca domestica and with Lucilia cuprina were 100% and 95%, respectively.

For `CCn1c(C(=O)NS(=O)(=O)c2ccccc2Br)nc(-c2c(F)cccc2F)c1C` [Example 415], the pest or weed control at 20 ppm with Myzus persicae [1] and in the experiment on Meloidogyne incognita was 100% each time. Further, in the experiment with Myzus persicae [3], the pest or weed control at 100 ppm stood at 100%.

As to `Cc1ccccc1S(=O)(=O)NC(=O)c1cn(C)c(-c2c(C)cccc2C)n1` [Example 478], the figures for the pest or weed control at 20 ppm in the experiment with Myzus persicae [1] and with Meloidogyne incognita were 100% and 90%, respectively. Besides, the pest or weed control at 100 ppm in the experiment with Myzus persicae [3] was determined as 99%.

With `Cc1ccccc1S(=O)(=O)NC(=O)c1cn(C)c(-c2cccc(F)c2F)n1` [Example 518], the pest or weed control at 20 ppm in the experiment with Myzus persicae [1] was found to be 100%; in the experiment with Meloidogyne incognita, 90%. In addition, the pest or weed control at 100 ppm in the experiment on Myzus persicae [3] is 95%.

For `Cc1ccccc1S(=O)(=O)NC(=O)c1cn(C)c(-c2ccccc2-c2ccccc2)n1` [Example 533], the pest or weed control at 20 ppm in the experiment with Myzus persicae [1] came out at 100%. The pest or weed control at 100 ppm with Myzus persicae [3] was found to be 90%.

Consider `Cc1ccccc1S(=O)(=O)NC(=O)c1cn(C)c(-c2ccc(Cl)c(Cl)c2)n1` [Example 536], for which the pest or weed control at 20 ppm in the experiment on Myzus persicae [1] worked out at 100%; with Meloidogyne incognita, 90%. In the experiment on Myzus persicae [3], the pest or weed control at 100 ppm stood at 80%.

Consider `COc1ccccc1S(=O)(=O)NC(=O)c1cn(C)c(-c2ncccc2F)n1` [Example 538], for which the pest or weed control at 20 ppm in the experiment with Myzus persicae [1] worked out at 100%; in the experiment with Meloidogyne incognita, 90%. For the same compound, in the experiment with Myzus persicae [3], the pest or weed control at 100 ppm is 100%.

As for `Cc1cccc(Cl)c1S(=O)(=O)NC(=O)c1cn(C)c(-c2ncccc2Cl)n1` [Example 576], the pest or weed control at 20 ppm in the experiment with Myzus persicae [1] was 100%. For the same compound, the pest or weed control at 500 g/ha with Phaedon cochleariae and with Myzus persicae [2] was 100% each time. For the same compound, the pest or weed control at 100 ppm in the experiment with Musca domestica and in the experiment on Lucilia cuprina was 100% throughout.

With `Cc1[nH]c(-c2ccc(F)cc2F)nc1C(=O)NS(=O)(=O)c1ccccc1Cl` [Example 616], the pest or weed control at 20 ppm with Myzus persicae [1] and in the experiment with Meloidogyne incognita was 100% each time. The pest or weed control at 100 ppm with Myzus persicae [3] was found to be 97%.

(Values after patent publication US20200288710A1, “SUBSTITUTED SULPHONAMIDES FOR CONTROLLING ANIMAL PESTS” (BAYER CROPSCIENCE AKTIENGESELLSCHAFT, priority 2016, published 2020).)
